Test results as given in ChEMBL document CHEMBL1201862, “PubChem BioAssay data set” (2004).
Where “and” joins values, the source holds several entries; their conditions need not be identical. Equal entries are not always repeated. Values belong to the molecule of their own block, whether it stands above or below them. Calls of active or inactive are those of the source.

Legend:
Mucolipin-3 [1] = target: T1, Mucolipin-3 (Homo sapiens, UniProt Q8TDD5); assay: Dose response cell-based high-throughput screening assay for agonists of the transient receptor potential channel ML3 (TRPML3). [Related pubchem assays: 1526, 1424, 1448 ]; assay type: functional
T1 sequence (Q8TDD5 whole entry): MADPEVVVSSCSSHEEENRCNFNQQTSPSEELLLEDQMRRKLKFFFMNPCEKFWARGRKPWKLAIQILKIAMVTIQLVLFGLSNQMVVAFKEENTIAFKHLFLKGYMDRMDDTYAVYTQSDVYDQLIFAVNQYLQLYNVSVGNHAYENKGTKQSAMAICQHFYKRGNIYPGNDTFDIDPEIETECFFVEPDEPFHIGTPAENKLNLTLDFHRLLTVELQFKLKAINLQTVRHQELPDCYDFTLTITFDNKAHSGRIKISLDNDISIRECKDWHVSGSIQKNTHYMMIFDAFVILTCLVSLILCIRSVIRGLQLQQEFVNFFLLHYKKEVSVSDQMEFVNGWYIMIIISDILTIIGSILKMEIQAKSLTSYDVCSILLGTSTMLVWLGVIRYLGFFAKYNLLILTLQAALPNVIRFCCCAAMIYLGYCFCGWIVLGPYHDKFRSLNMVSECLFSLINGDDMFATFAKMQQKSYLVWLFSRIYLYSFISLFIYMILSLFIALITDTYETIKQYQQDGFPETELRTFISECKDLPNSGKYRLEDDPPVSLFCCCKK

Ion channel NompC [2] = target: T2, Ion channel NompC (Danio rerio, UniProt Q7T1G6); assay: Fluorescence counterscreen assay for TRPML3 agonists: dose response cell-based high-throughput screening assay to identify agonists of the transient receptor potential channel N1 (TRPN1). [Related pubchem assays: 1526, 1424, 1448 ]; assay type: functional
T2 sequence (Q7T1G6 whole entry): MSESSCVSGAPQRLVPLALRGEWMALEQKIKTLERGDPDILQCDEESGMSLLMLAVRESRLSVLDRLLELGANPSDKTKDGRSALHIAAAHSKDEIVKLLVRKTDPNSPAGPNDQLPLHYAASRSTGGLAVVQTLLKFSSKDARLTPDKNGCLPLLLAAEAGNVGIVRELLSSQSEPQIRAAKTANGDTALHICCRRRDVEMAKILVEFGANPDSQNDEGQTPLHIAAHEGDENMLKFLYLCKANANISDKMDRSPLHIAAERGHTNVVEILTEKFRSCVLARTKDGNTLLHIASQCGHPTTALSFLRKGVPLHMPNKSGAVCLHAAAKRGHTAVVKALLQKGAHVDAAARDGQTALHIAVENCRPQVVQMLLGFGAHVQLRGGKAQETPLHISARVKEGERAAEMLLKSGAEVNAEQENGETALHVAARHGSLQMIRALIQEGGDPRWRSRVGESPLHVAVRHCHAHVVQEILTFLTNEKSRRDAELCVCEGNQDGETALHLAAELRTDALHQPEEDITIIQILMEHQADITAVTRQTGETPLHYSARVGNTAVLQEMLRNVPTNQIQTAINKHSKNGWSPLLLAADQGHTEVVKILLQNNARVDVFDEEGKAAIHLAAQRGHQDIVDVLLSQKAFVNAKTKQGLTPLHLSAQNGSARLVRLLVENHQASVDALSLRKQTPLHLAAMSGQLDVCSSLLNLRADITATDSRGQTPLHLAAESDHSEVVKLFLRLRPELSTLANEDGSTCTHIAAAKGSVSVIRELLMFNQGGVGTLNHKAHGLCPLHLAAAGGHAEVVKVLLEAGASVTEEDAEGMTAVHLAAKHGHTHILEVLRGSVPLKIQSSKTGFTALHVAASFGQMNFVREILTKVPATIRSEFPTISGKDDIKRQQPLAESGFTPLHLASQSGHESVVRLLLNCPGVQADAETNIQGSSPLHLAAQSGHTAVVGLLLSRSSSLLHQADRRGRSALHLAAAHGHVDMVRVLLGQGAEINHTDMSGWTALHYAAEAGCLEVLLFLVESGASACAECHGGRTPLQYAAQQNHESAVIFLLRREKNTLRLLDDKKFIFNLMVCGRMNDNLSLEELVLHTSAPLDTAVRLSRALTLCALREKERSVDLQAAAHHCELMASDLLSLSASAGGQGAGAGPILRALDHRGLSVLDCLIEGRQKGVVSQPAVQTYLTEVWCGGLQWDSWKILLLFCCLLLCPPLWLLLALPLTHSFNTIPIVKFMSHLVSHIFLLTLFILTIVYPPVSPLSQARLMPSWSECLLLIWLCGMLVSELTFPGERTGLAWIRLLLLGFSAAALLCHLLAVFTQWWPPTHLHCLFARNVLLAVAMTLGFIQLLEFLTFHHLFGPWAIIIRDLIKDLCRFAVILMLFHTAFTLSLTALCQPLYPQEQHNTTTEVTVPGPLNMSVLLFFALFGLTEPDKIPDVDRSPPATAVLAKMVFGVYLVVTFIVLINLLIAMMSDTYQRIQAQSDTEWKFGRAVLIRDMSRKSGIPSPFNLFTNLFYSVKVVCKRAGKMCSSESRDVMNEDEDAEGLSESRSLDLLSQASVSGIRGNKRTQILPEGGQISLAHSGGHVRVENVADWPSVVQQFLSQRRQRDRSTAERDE

Mucolipin-3 [3] = target: T1, Mucolipin-3; assay: activators of mucolipin-3 and mucolipin-2 – cell-based, patch clamp, Fura-2 profiling panel, panel member TRPML3 Dose Response (AID 2116)
Ion channel NompC [4] = target: T2, Ion channel NompC; assay: activators of mucolipin-3 and mucolipin-2 – cell-based, […], Fura-2 profiling panel, panel member TRPN1 Dose Response (AID 2116)
[5] = antiviral protection against BTV-induced cell death – arbovirus, BSR cells, confirmation (AID 1250); assay type: functional;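 note: protection from viral cytopathic effect measured as cell viability by ATP luminescence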
Bcl-2-like protein 10 = target: T3, Bcl-2-like protein 10 (Homo sapiens, UniProt Q9HD36); assay: Concentration-response of Bcl-B inhibitors by biochemical FP with TR3 (AID 1243); assay type: functional
T3 sequence (Q9HD36 whole entry): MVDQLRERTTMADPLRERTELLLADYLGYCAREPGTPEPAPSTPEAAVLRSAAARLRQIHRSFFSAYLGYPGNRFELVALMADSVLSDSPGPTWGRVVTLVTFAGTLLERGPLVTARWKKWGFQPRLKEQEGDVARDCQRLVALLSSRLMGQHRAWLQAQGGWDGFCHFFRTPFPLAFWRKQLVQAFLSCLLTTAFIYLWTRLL

[6] = target: Voltage-dependent T-type calcium channel subunit alpha-1H (Homo sapiens, UniProt O95180); assay type: functional;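 note: channel activity triggered by adding a high calcium stimulation buffer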
[7] = target: Luciferin 4-monooxygenase (Photinus pyralis, UniProt P08659); assay: Counter Screen for Luciferase-based Assay Positives. [Related pubchem assays: 620, 618, 411 ]
Luciferin 4-monooxygenase, sequence (P08659 whole entry): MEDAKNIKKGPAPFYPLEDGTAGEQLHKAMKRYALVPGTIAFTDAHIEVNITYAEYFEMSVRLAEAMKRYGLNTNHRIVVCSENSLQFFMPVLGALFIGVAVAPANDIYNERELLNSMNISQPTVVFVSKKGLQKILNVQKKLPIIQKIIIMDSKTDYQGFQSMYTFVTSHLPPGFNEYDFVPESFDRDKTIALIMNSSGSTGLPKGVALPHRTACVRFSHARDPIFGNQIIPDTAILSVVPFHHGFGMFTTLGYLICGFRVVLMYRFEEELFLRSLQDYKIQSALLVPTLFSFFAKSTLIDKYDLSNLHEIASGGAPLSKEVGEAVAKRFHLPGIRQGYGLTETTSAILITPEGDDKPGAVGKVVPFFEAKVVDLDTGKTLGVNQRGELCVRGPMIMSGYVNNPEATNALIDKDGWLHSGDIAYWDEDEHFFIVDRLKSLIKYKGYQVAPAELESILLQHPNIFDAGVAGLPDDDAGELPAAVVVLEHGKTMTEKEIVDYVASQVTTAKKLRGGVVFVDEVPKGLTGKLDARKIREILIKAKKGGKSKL

HT-1080 = assay: HT1080 cell viability loss – fluorescence readout (AID 620); assay type: functional, cell-based; conditions: Homo sapiens
[8] = target: T4, Eukaryotic translation initiation factor 2-alpha kinase 3 (Homo sapiens, UniProt Q9NZJ5); assay: Dose response cell-based high-throughput screening assay to measure PERK inhibition. [Related pubchem assays: 1416 ]; assay type: functional
T4 sequence (Q9NZJ5 whole entry): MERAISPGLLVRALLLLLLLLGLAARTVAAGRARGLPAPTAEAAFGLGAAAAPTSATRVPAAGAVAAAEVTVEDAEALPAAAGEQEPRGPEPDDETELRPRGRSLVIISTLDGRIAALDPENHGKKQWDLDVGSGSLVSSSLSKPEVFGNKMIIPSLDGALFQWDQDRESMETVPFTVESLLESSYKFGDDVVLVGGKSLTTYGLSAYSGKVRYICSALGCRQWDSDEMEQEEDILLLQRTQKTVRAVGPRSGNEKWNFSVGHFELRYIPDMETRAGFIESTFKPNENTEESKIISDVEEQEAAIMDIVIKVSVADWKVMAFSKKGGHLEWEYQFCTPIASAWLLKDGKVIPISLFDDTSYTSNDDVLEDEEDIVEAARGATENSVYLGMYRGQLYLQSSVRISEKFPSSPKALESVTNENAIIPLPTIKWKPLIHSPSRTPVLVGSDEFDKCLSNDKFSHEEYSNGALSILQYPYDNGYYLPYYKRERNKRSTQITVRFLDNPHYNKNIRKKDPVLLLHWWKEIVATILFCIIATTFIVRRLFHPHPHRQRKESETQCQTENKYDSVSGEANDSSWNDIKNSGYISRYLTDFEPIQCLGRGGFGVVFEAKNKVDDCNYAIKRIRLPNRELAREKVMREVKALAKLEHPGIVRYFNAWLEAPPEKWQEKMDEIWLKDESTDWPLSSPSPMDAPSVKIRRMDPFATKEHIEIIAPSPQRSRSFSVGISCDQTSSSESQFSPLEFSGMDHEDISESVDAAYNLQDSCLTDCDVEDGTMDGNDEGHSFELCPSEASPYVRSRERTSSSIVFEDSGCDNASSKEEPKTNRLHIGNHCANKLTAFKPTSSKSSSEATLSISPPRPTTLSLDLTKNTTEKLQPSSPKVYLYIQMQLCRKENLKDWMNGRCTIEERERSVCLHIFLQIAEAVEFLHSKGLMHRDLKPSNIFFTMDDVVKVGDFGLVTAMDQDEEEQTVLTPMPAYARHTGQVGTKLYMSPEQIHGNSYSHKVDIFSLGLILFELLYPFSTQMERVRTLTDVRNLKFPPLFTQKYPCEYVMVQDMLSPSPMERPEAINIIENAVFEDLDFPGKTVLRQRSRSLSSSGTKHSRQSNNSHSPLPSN

[9] = target: T4, Eukaryotic translation initiation factor 2-alpha kinase 3; assay: Counterscreen assay for PERK inhibitors: Dose response cell-based high throughput screening assay to measure inhibition of PERK at 6 hours. [Related pubchem assays: 1522, 1416 ]; assay type: functional
[10] = target: Acyl-homoserine lactone acylase PvdQ (Pseudomonas aeruginosa (strain LESB58), UniProt Q9I194); assay: PvdQ acylase enzyme activity blockers – biochemical, fluorescence, plate reader and imaging, cherry-picks, dose response (AID 493231)
[11] = target: C-C chemokine receptor type 6 (Homo sapiens, UniProt P51684); assay: antagonism of CCR6 beta-arrestin recruitment – cell-based, luminescent beta-arrestin readout, dose response (AID 504728); assay type: functional
C-C chemokine receptor type 6, sequence (P51684 whole entry): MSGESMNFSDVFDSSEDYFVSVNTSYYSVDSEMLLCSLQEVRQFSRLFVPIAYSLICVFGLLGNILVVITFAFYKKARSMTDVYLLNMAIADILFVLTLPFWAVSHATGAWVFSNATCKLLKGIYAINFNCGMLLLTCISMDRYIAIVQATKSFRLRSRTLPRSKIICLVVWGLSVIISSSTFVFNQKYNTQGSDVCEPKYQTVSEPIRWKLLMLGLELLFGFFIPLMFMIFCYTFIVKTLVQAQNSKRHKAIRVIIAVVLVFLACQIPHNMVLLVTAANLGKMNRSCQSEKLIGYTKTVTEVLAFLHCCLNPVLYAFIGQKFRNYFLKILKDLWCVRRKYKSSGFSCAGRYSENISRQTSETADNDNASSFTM

Beta-galactosidase = Beta-galactosidase (Escherichia coli, UniProt Q8VNN2); assay: detection-enzyme interference by beta-gal modulators – biochemical, E. coli enzyme, set 3, artefact control for CCR6 antagonist project, dose response (AID 504712); assay type: functional
Beta-galactosidase, sequence (Q8VNN2 whole entry): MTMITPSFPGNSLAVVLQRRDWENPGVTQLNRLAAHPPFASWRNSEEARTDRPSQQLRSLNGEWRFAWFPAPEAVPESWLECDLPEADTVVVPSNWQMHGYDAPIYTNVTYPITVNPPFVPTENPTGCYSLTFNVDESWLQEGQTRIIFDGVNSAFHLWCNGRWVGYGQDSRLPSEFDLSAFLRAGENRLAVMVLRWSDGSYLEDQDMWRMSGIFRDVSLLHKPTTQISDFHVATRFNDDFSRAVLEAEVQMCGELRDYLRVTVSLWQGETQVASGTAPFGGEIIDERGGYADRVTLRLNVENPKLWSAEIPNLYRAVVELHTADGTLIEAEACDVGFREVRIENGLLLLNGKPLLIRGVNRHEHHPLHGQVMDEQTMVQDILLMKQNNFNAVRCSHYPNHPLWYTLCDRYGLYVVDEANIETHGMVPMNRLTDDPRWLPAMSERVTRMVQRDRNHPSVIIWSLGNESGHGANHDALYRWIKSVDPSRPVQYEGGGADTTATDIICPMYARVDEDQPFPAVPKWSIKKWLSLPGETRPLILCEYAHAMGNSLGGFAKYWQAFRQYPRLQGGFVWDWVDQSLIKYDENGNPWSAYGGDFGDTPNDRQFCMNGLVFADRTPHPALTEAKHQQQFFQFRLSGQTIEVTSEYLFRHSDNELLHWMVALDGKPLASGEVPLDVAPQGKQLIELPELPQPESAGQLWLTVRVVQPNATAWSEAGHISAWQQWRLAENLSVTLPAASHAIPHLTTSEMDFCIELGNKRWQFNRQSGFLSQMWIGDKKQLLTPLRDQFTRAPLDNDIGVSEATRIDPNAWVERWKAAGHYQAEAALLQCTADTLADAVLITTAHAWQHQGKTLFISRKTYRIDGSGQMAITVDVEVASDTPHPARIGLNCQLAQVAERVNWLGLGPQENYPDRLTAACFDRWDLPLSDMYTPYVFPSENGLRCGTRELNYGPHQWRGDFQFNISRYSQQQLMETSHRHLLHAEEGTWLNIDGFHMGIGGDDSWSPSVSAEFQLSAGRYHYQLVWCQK

Galanin receptor type 3 = target: T5, Galanin receptor type 3 (Homo sapiens, UniProt O60755); assay: Fluorescence-based cell-based primary high throughput dose response assay to identify antagonists of the Galanin Receptor 3 (GalR3).; assay type: functional
T5 sequence (O60755 whole entry): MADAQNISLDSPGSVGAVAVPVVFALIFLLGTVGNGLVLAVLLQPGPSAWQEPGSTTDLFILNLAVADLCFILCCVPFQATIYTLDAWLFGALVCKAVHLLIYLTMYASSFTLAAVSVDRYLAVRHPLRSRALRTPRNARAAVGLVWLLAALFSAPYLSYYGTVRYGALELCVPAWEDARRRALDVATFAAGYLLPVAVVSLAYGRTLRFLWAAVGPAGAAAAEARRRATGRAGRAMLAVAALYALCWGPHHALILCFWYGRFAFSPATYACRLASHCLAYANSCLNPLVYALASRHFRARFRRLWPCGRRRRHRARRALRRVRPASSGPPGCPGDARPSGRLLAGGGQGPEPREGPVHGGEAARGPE

cells = assay type: functional, cell-based; conditions: HEK-CNG
[12] = viability loss in CEM21 cells – cell-based, CellTiter-Glo luminescence, cherry-picked, cytotoxicity control for viral fusion inhibitor project, dose response (AID 652042); assay type: functional;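 note: potency for signal decrease meaning cytotoxicity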
[13] = blockers of HIV-1 ZM109 envelope-driven cell-cell fusion – HeLa effector, CEM target cells, luciferase, cherry-pick, dose response (AID 652058); assay type: functional, cell-based;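 note: luciferase signal from HIV-1 Env mediated cell-cell fusion of effector and target cells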
[14] = HIV-1 AD8 envelope cell-cell fusion blockers – cherry-pick, dose response (AID 652062); assay type: functional, cell-based;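 note: luciferase signal from cell-cell fusion driven by HIV-1 clade B AD8 Env; potency is for inhibitors of fusion seen as a drop in luminescence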

EC50 (Mucolipin-3 [1]): 1.84 µM (active) | EC50 (Ion channel NompC [2]): > 29.9 µM (not active) | EC50 (Mucolipin-3 [3]): 3.46 µM (active) | EC50 (Ion channel NompC [4]): > 29.9 µM (inactive)
Structure (SMILES): Cc1ccc(Cl)cc1N1CCN(S(=O)(=O)N2CCCCC2)CC1

Structure (SMILES): N#Cc1c(O)nc(SCC(=O)Nc2nnc(C(F)(F)F)s2)nc1-c1ccccc1
IC50 [5]: 28.1 µM (active)

EC50 (Bcl-2-like protein 10): 23.8 µM (active)
Structure (SMILES): OC1=c2ccccc2=C(O)C12N=Nc1nnc(S)n1N2

EC50 [6]: 558 nM (active)
Structure (SMILES): CCN(CC)S(=O)(=O)c1cccc(C(=O)N[C@H](C(=O)OCC(=O)Nc2ccccc2)C(C)C)c1

Structure (SMILES): CCOC(=O)CNC(=O)CSc1ncnc2c1cnn2-c1ccc(C)cc1
EC50 [7]: < 200 nM (active) | EC50 (HT-1080): > 50 µM (not active)

EC50 [8]: > 55.7 µM (not active) | EC50 [9]: > 55.7 µM (not active)
Structure (SMILES): CC(C)C(=O)Nc1ccc2c(c1)nc(CCN1CCN(C)CC1)n2C

Structure (SMILES): CC(C)CCNC(=O)c1cccc(Cl)c1
AC50 [10]: 6.33 µM (active)

Structure (SMILES): COCC(C)n1c(-c2ccc3c(c2)NC(=O)CO3)cs/c1=N\c1ccc(OC(F)F)cc1 (centres undefined)
IC50 [11]: > 66.6 µM (inactive) | IC50 (Beta-galactosidase): > 66.6 µM (inactive) | IC50 (Galanin receptor type 3): 4.24 µM (active) and 3.49 µM (active) | EC50 (cells): > 29.9 µM (inactive) | AC50 [12]: 42.7 µM (active) | AC50 [13]: 4.28 µM (active) | AC50 [14]: 3.15 µM (active)
